# Results as given in ChEMBL document CHEMBL1201862, “PubChem BioAssay data set” (2004).
# Active and inactive are the calls of the source.
# Legend:
# [1] = biological target: G-protein coupled receptor 55 (Homo sapiens, UniProt Q9Y2T6); assay: inhibition of LPI-stimulated GPR55 beta-arrestin translocation – imaging, U2OS, beta-arrestin-GFP, LPI agonist, primary screen (AID 2013); assay type: functional;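 further: antagonist potency measured as reduced agonist-driven arrestin aggregation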
# [2] = biological target: Large T antigen (Simian virus 40, UniProt P03070); assay type: functional, Betapolyomavirus macacae;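 further: Confirmatory-stage PubChem screen for compounds that inhibit SV40 T antigen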
# [3] = biological target: Induced myeloid leukemia cell differentiation protein Mcl-1 (Homo sapiens, UniProt Q07820); assay type: functional
# [4] = Luminescence Cell-Based Dose Retest to Confirm Inhibitors of Cancer Stem Cells. [Related pubchem assays (depositor defined):AID2717, AID2721]; assay type: functional; settings: Homo sapiens
# [5] = biological target: FAD-linked sulfhydryl oxidase ALR (Homo sapiens, UniProt P55789); assay: ALR-catalysed DTT oxidation blockers – biochemical, H2O2 detection, luminescence, cherry-pick, dose response (AID 493248)
# [6] = biological target: T1, High affinity choline transporter 1 (Homo sapiens, UniProt Q9GZV3); assay: human choline transporter blockers, potency – cell-based, 5-point CRC, membrane potential dye, dose response (AID 504840); assay type: functional
# T1 sequence (Q9GZV3 whole entry): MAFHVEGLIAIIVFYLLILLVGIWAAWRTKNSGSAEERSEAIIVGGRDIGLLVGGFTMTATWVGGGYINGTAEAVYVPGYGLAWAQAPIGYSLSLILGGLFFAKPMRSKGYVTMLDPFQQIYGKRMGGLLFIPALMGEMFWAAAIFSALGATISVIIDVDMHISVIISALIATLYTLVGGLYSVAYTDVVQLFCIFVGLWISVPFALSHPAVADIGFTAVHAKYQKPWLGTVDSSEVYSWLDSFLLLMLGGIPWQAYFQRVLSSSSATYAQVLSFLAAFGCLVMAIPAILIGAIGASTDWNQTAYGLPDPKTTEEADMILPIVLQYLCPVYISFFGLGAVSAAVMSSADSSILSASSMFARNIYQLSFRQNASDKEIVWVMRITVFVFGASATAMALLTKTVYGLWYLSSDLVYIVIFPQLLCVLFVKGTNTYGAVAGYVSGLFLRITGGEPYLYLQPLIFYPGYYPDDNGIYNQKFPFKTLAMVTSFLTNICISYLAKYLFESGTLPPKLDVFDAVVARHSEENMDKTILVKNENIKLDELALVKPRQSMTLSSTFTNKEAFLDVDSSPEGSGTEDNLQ
# [7] = system: Vero; assay: viability of Vero cells under compound – cytotoxicity control for flavivirus capping enzyme inhibitors (AID 588742); assay type: functional; settings: Chlorocebus sabaeus
# [8] = biological target: Genome polyprotein (dengue virus type 2, UniProt P29990); assay: flavivirus cap methylation enzyme inhibition – biochemical, confirmation dose response, primary screen (AID 588689); assay type: functional
# [9] = biological target: T2, Type-1 angiotensin II receptor (Homo sapiens, UniProt P30556); assay: agonist activity at AGTR1 – cell-based, uHTS hits, selectivity assay for APJ receptor agonist project, dose response (AID 488865); assay type: functional;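 further: beta-arrestin recruitment to AT1 measured by enzyme fragment complementation luminescence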
# T2 sequence (P30556 whole entry): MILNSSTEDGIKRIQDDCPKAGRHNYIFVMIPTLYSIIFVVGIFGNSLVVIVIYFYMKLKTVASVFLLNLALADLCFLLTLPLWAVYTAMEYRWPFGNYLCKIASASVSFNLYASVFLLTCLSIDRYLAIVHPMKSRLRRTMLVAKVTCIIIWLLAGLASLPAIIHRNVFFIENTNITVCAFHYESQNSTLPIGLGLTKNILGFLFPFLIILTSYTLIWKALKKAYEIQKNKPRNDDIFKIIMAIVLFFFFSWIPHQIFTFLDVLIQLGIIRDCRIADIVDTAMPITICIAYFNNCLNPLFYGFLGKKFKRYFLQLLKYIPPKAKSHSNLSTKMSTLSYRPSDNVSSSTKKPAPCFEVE
# [10] = viability of uninfected HEp-2 cells – cell-based, HTS, cytotoxicity control for RSV inhibitor project, dose response (AID 2410); assay type: functional; settings: human respiratory syncytial virus
# [11] = biological target: Bcl-2-related protein A1 (Mus musculus, UniProt Q07440); assay type: functional;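 further: confirmatory dose–response counterscreen on Bfl-1, used to check hits from a UBC13 polyubiquitin inhibitor campaign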
# [12] = biological target: T3, Ubiquitin-conjugating enzyme E2 N (Homo sapiens, UniProt P61088); assay type: functional
# T3 sequence (P61088 whole entry): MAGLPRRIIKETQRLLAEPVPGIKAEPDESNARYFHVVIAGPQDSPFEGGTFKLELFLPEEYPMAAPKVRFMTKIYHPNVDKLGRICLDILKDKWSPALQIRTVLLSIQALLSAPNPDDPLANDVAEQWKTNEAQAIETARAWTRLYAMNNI
# [13] = biological target: T3, Ubiquitin-conjugating enzyme E2 N; assay type: functional; remark: listed apart in the source
# [14] = biological target: Cytochrome P450 2D6 (Homo sapiens, UniProt P10635);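 further: CYP2D6 member of a cytochrome P450 panel assay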
# [15] = biological target: T4, RNA-binding protein pos-1 (Caenorhabditis elegans, UniProt G5EF15); assay: disruptors of C. elegans POS-1 RNA interaction – biochemical, fluorescence polarization, dose response (AID 1964);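 further: purified POS-1 fused to maltose binding protein made in E. coli; potency of compounds blocking POS-1 binding to fluorescent RNA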
# T4 sequence (G5EF15 whole entry): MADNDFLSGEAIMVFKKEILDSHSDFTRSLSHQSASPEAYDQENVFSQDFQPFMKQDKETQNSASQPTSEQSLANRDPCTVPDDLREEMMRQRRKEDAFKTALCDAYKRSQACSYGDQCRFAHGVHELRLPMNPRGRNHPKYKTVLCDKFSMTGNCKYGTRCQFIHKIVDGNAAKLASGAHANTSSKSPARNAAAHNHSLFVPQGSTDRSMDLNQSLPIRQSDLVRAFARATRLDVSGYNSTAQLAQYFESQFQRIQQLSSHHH
# [16] = biological target: T5, Zinc finger protein mex-5 (Caenorhabditis elegans, UniProt Q9XUB2); assay: potency of MEX-5 RNA-binding blockers – biochemical, C. elegans, fluorescence polarization, dose response (AID 1960)
# T5 sequence (Q9XUB2 whole entry): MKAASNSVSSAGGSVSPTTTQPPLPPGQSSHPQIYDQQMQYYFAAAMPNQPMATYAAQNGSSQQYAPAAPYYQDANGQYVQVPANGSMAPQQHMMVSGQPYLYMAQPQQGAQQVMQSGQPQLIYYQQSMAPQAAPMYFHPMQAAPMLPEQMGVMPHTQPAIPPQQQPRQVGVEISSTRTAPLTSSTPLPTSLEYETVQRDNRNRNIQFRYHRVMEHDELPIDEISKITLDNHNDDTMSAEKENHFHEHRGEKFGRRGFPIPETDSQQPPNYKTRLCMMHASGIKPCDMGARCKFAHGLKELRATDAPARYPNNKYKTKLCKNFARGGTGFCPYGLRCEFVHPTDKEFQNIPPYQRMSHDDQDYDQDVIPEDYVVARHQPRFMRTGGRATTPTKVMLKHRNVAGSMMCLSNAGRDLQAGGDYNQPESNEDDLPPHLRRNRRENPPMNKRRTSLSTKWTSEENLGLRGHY
# [17] = biological target: NS3 (Hepatitis C virus, UniProt A3EZJ3); assay: PubChem AID 2173; set-up: species or system Hepacivirus hominis
# [18] = biological target: Troponin, cardiac muscle (Homo sapiens, UniProt P19429+P45379+P63316); assay: Fluorescence-based biochemical high throughput dose response assay for activators of the calcium sensitivity of cardiac Regulated Thin Filaments (RTF). [Related pubchem assays (depositor defined):AID493008, AID493018, AID504382, AID504383]; assay type: protein-complex assay
# [19] = biological target: T6, Endoribonuclease toxin MazF (Escherichia coli K-12, UniProt P0AE70); assay: activation of MazEF endoribonuclease cleavage – biochemical, fluorescence, single-stranded RNA substrate, uHTS hits, dose response (AID 588481); assay type: functional
# T6 sequence (P0AE70 whole entry): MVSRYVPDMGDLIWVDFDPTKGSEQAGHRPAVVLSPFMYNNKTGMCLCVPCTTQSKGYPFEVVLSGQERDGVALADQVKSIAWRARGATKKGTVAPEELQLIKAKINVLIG
# [20] = biological target: T6, Endoribonuclease toxin MazF; assay: substrate-only fluorescence increase artefacts – biochemical, single-stranded RNase substrate, counter-screen for MazEF activator project, dose response (AID 588502); assay type: functional
# Sequence of G-protein coupled receptor 55 (Q9Y2T6 whole entry): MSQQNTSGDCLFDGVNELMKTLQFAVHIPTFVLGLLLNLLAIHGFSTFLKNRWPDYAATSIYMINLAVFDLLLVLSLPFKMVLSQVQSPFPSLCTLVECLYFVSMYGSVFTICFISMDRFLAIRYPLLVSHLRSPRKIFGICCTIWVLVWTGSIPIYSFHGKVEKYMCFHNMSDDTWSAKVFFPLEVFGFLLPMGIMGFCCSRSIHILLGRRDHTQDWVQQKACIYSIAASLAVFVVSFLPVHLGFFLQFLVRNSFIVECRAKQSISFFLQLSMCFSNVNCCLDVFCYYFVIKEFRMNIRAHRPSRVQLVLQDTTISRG
# Sequence of Cytochrome P450 2D6 (P10635 whole entry, the tested form may be a part): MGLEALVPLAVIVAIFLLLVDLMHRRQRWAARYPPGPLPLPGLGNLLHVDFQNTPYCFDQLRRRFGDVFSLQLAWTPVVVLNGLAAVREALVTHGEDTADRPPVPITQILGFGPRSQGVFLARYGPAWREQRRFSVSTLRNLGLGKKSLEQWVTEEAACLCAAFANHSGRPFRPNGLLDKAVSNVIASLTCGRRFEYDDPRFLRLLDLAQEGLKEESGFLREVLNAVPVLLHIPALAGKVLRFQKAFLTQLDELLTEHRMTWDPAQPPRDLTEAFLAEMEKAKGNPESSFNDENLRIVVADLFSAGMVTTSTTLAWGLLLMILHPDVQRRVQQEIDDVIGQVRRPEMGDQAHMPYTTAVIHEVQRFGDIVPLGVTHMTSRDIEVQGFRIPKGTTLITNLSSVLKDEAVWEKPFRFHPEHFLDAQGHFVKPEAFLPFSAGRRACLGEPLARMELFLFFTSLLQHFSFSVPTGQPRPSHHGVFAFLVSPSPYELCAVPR
# Sequence of Bcl-2-related protein A1 (Q07440 whole entry): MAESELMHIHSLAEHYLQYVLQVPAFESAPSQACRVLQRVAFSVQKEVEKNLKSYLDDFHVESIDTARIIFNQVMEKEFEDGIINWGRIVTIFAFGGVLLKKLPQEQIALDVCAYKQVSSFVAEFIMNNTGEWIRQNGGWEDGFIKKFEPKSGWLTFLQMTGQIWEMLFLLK
# Sequence of Large T antigen (P03070 whole entry): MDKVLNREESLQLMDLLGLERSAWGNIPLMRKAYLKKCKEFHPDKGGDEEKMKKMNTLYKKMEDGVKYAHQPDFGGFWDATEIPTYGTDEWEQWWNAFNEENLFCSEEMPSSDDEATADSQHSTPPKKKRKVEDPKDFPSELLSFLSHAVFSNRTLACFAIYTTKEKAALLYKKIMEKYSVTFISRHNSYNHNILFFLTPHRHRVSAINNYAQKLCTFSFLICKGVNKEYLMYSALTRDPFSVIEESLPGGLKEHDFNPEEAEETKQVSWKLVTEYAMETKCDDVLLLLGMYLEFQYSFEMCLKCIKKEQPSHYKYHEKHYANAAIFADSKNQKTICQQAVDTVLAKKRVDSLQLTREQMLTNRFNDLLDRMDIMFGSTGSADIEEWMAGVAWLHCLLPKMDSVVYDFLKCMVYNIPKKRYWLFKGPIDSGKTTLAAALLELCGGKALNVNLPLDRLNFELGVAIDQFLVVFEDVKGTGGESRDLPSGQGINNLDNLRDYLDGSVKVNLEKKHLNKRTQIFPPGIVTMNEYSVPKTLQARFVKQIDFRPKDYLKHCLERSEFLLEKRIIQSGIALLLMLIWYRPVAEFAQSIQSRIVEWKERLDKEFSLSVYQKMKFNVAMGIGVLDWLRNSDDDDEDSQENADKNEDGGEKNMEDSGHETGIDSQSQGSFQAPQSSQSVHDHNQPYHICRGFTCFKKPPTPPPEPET
# Sequence of NS3 (A3EZJ3 whole entry): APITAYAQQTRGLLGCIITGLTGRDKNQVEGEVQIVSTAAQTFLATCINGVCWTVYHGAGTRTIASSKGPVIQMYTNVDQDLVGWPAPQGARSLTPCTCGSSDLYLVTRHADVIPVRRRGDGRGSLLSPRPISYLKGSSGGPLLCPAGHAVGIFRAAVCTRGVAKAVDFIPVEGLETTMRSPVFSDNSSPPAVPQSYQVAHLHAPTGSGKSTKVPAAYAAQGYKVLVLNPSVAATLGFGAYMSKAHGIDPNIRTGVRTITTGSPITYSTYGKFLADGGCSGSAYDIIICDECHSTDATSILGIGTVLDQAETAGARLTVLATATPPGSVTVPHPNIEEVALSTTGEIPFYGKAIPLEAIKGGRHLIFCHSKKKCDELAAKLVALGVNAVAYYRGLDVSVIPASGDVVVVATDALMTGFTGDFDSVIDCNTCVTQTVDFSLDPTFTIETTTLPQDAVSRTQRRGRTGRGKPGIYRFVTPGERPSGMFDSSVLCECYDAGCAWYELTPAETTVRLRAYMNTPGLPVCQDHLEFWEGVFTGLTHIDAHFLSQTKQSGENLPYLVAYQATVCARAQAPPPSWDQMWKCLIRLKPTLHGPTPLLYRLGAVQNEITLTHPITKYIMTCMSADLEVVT
# Sequence of Induced myeloid leukemia cell differentiation protein Mcl-1 (Q07820 whole entry): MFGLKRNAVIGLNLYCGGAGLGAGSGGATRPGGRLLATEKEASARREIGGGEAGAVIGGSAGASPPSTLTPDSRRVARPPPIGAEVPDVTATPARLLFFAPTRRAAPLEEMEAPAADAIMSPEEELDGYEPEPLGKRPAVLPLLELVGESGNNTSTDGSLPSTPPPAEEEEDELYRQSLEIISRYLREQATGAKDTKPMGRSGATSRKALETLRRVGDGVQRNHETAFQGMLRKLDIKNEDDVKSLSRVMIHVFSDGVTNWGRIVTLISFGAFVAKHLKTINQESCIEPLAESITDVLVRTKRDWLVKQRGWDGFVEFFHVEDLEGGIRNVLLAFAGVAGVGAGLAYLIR
# Sequence of Genome polyprotein (P29990 2492-3391 limits assumed): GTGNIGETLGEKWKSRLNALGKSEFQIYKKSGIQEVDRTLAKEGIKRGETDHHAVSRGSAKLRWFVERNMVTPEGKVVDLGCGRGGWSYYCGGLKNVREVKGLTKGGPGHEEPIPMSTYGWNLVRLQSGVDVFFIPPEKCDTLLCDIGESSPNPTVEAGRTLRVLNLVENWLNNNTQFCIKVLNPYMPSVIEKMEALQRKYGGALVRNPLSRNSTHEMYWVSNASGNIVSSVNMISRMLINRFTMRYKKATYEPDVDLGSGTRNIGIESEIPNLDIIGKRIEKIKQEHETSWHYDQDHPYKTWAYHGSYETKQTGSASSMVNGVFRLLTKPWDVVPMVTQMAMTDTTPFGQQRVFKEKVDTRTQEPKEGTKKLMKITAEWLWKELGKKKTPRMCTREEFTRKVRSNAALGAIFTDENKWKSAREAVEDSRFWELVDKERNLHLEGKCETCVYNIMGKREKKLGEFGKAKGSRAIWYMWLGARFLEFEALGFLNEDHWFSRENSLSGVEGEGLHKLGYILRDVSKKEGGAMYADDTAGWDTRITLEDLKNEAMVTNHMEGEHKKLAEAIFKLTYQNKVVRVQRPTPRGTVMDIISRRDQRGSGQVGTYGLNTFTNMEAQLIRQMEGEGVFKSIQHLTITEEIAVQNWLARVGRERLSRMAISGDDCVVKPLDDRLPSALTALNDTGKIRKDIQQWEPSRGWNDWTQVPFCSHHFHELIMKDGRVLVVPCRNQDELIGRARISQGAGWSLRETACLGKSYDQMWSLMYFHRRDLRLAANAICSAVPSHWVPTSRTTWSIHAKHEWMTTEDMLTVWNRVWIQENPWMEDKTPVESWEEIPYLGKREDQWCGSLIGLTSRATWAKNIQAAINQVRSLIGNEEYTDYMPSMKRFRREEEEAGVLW
# Sequence of FAD-linked sulfhydryl oxidase ALR (P55789 whole entry): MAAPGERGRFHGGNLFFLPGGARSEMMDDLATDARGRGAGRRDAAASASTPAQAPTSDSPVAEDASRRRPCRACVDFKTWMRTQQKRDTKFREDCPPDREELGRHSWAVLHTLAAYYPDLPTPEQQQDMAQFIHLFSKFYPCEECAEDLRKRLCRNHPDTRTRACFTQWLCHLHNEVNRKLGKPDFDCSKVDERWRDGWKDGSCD
compound,measurement,setting,value
Cc1ccc(N2NC(=O)/C(=C\c3cc4c(cc3[N+](=O)[O-])OCO4)C2=O)cc1C,IC50,[1],3.3 µM (active)
same,IC50,[2],23 µM (active)
same,IC50,[3],4.66 µM (active)
same,AC50,[4],3.65 µM (active)
same,AC50,[5],0.321 µM (active)
same,IC50,[6],3.98 µM (active)
same,CC50,[7],> 40 µM (active)
same,IC50,[8],27 µM (active)
CN(C)CCCN(C(=O)c1ccc(S(=O)(=O)N2CCc3ccccc3C2)cc1)c1nc2c(F)cccc2s1,EC50,[9],> 100 µM (inactive)
O=C(CCCn1c(=S)[nH]c2ccc(Br)cc2c1=O)N1CCN(c2ccccn2)CC1,CC50,[10],23.6 µM (active)
same,IC50,[11],> 20 µM (inactive)
same,IC50,[12],19.6 µM (active)
same,IC50,[13],> 20 µM (inactive)
same,AC50,[14],15.8 µM (inconclusive)
C#CCN(CC=C)C(=O)c1ccc2nc(C3CCCCC3)oc2c1,IC50,[1],4.55 µM (active)
CSc1ccc(C2C(C(=O)c3ccco3)=C(O)C(=O)N2c2nnc(SC)s2)cc1 (stereo unspecified),EC50,[15],6.79 µM (active)
same,EC50,[16],16.4 µM (active)
same,IC50,[17],4.87 µM (active)
same,EC50,[18],0.279 µM (active)
same,EC50,[19],> 99 µM (inactive)
same,EC50,[20],> 99 µM (inactive)
